In the supplement of paper PMC10307832:

Key:
Experiment in all cases: relative viability (nuclei count vs DMSO), 5 days (fraction); higher = more cells survive
[1] = compound: C[C@@H](Oc1cc(-c2cnn(C3CCNCC3)c2)cnc1N)c1c(Cl)ccc(F)c1Cl [Crizotinib] + CCNC(=O)c1noc(-c2cc(C(C)C)c(O)cc2O)c1-c1ccc(CN2CCOCC2)cc1 [Luminespib] (partner 0.01 µM)
Method in brief: (§1)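 Cells from lung cancer lines were seeded into 1536-well plates and, one day later, dosed by pin tool. Treatments were either a single drug or a fixed dose of an anchor drug with five library-drug doses (not always all listed) in √10 steps. After 5 days, nuclei were stained in a one-step fixation (final 0.05% Triton X-100, 1% formaldehyde, 1 ug/ml Hoechst) and counted on 4× images, and relative viability is the treated-to-vehicle nuclei ratio, as the median of duplicate plates.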

[2] = compound: CC(C)C[C@H](NC(=O)[C@H](CCc1ccccc1)NC(=O)CN1CCOCC1)C(=O)N[C@@H](Cc1ccccc1)C(=O)N[C@@H](CC(C)C)C(=O)[C@@]1(C)CO1 [Carfilzomib] + COc1cccc2cc(-c3nc([C@H]4CC[C@H](C(=O)O)CC4)n4ncnc(N)c34)[nH]c12 [OSI-027] (partner 0.5 µM)
Method in brief: as §1

[3] = compound: CC(C)C[C@H](NC(=O)[C@H](CCc1ccccc1)NC(=O)CN1CCOCC1)C(=O)N[C@@H](Cc1ccccc1)C(=O)N[C@@H](CC(C)C)C(=O)[C@@]1(C)CO1 [Carfilzomib] + CS(=O)(=O)CCNCc1ccc(-c2ccc3ncnc(Nc4ccc(OCc5cccc(F)c5)c(Cl)c4)c3c2)o1 [Lapatinib] (partner 2 µM)
Method in brief: as §1

[4] = compound: CC(C)C[C@H](NC(=O)[C@H](CCc1ccccc1)NC(=O)CN1CCOCC1)C(=O)N[C@@H](Cc1ccccc1)C(=O)N[C@@H](CC(C)C)C(=O)[C@@]1(C)CO1 [Carfilzomib] + NC(=O)Nc1cc(-c2cccc(F)c2)sc1C(=O)N[C@H]1CCCNC1 [AZD7762] (partner 0.2 µM)
Method in brief: as §1

[5] = compound: O=C(c1cc(Cc2n[nH]c(=O)c3ccccc23)ccc1F)N1CCN(C(=O)C2CC2)CC1 [Olaparib] + Cc1cc(Nc2cc(N3CCN(C)CC3)nc(Sc3ccc(NC(=O)C4CC4)cc3)n2)n[nH]1 [Tozasertib] (partner 0.1 µM)
Method in brief: as §1

NCI-H1793
relative viability ([1]; first compound 0.03162 µM): 0.209 | relative viability ([1]; first compound 0.1 µM): 0.178 | relative viability ([1]; first compound 1 µM): 0.161 | relative viability ([2]; first compound 0.003162 µM): 0.323 | relative viability ([2]; first compound 0.01 µM): 0.369 | relative viability ([2]; first compound 0.03162 µM): 0.269 | relative viability ([2]; first compound 0.1 µM): 0.133 | relative viability ([3]; first compound 0.003162 µM): 0.772 | relative viability ([3]; first compound 0.01 µM): 0.476 | relative viability ([3]; first compound 0.03162 µM): 0.424 | relative viability ([3]; first compound 0.1 µM): 0.114 | relative viability ([4]; first compound 0.001 µM): 0.481 | relative viability ([4]; first compound 0.003162 µM): 0.883 | relative viability ([4]; first compound 0.01 µM): 0.599 | relative viability ([4]; first compound 0.03162 µM): 0.757 | relative viability ([4]; first compound 0.1 µM): 0.506 | relative viability ([5]; first compound 0.08 µM): 0.324 | relative viability ([5]; first compound 0.253 µM): 0.279 | relative viability ([5]; first compound 2.53 µM): 0.409 | relative viability ([5]; first compound 8 µM): 0.358
